Results as given in ChEMBL document CHEMBL4359921, “Discovery of potent 4-aminoquinoline hydrazone inhibitors of NRH:quinoneoxidoreductase-2 (NQO2)” (Eur J Med Chem, 2019).

Tests used:
SK-OV-3 [1] = assay: Cytotoxicity against human SKOV3 cells assessed as reduction in cell viability incubated for 96 hrs by MTT assay; settings: SK-OV-3, 96 h
SK-OV-3 [2] = assay: Cytotoxicity against human SKOV3 cells assessed as reduction in cell viability incubated for 24 hrs by MTT assay; settings: SK-OV-3, 24 h
TOV112D [3] = assay: Cytotoxicity against human TOV112D cells transfected with empty vector assessed as reduction in cell viability incubated for 96 hrs by MTT assay
SK-OV-3 [4] = assay: Cytotoxicity against human SKOV3 cells transfected with shRNA assessed as reduction in cell viability incubated for 96 hrs in presence of doxycycline by MTT assay; settings: SK-OV-3, 96 h
SK-OV-3 [5] = assay: Cytotoxicity against human SKOV3 cells transfected with non-targeted vector assessed as reduction in cell viability incubated for 96 hrs in presence of doxycycline by MTT assay; settings: SK-OV-3, 96 h
TOV112D [6] = assay: Cytotoxicity against human TOV112D cells expressing NQO2 assessed as reduction in cell viability incubated for 96 hrs by MTT assay
[7] = molecular target: NAD(P)H dehydrogenase [quinone] 1 (Homo sapiens, UniProt P15559); assay: Inhibition of recombinant human NQO1 expressed in Escherichia coli using DCPIP as substrate by spectrophotometry
Chain of NAD(P)H dehydrogenase [quinone] 1 (P15559 whole entry): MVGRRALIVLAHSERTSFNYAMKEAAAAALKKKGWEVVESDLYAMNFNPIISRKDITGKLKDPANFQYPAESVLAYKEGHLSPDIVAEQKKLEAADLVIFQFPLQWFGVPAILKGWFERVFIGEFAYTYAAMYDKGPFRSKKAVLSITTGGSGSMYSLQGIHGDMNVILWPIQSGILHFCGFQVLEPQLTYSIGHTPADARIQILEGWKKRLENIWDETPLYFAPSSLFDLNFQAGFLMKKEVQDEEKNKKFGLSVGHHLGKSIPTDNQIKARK

IC50 [7] | IC50 ([7]; read-out: IC50) | Structure (SMILES) | IC50 (SK-OV-3 [1]) | IC50 (SK-OV-3 [2]) | IC50 (TOV112D [3]) | IC50 (SK-OV-3 [4]) | IC50 (SK-OV-3 [5]) | IC50 (TOV112D [6])
 |  | COc1ccc2nc(-c3ccccc3)cc(N/N=C/c3ccc(N(C)C)cc3)c2c1 | 1.53 µM | 1.57 µM |  |  |  | 
 |  | Oc1ccc(/C=C/c2cc(O)cc(O)c2)cc1 [RESVERATROL] | 36.3 µM | 91.7 µM | 10.7 µM | 39.7 µM | 29 µM | 11 µM
 |  | COc1ccc2nc(C)cc(NN)c2c1 | 41 µM | 84 µM |  |  |  | 
Not Active |  | COc1ccc2nc(-c3ccccc3)cc(N/N=C/c3cccc(OC)c3O)c2c1 | 2.73 µM | 2.88 µM |  |  |  | 
 |  | COc1ccc2nc(C)cc(N/N=C/c3ccc(O)cc3)c2c1 | 2.3 µM | 2.75 µM | 3.17 µM | 2.58 µM | 2.87 µM | 2.98 µM
 |  | COc1ccc2nc(C)cc(N/N=C/c3ccc(F)cc3)c2c1 | 2.3 µM | 2.3 µM |  |  |  | 
Not Active |  | COc1ccc2nc(C)cc(NNC(=O)c3ccc(F)cc3)c2c1 | > 100 µM | > 100 µM | 61.3 µM | > 100 µM | > 100 µM | 57.3 µM
 |  | COc1ccc2nc(C)cc(N/N=C/c3ccccc3)c2c1 | 1.73 µM | 1.77 µM |  |  |  | 
Not Active |  | COc1ccc2nc(C)cc(N/N=C/Cc3ccccc3)c2c1 | 40.7 µM | 50 µM | 42.5 µM | 49.7 µM | 44.7 µM | 41 µM
Not Active |  | COc1ccc2nc(-c3ccccc3)cc(N/N=C/c3cccnc3)c2c1 | 2.2 µM | 2.8 µM |  |  |  | 
 |  | COc1ccc2nc(C)cc(N/N=C/c3c[nH]cn3)c2c1 | 4.2 µM | 32 µM | 3.65 µM | 6.73 µM | 6.9 µM | 3.72 µM
 | 0.425 µM | COc1ccc2nc(-c3ccccc3)cc(N/N=C/c3c[nH]cn3)c2c1 | 2.17 µM | 2.47 µM |  |  |  | 
 |  | COc1ccc2nc(C)cc(NNC(=O)c3ccccc3)c2c1 | 43.3 µM | 68.3 µM |  |  |  | 
 |  | COc1ccc2nc(C)cc(N/N=C/c3cccc(OC)c3O)c2c1 | 2 µM | 2.1 µM | 3.4 µM | 2.78 µM | 2.7 µM | 3.77 µM
 |  | Nc1c2ccccc2nc2ccccc12 [AMINACRINE] | 2.78 µM | 5.43 µM | 3.6 µM | 2.57 µM | 2.53 µM | 3.15 µM
Not Active |  | COc1ccc2nc(C)cc(N/N=C/c3ccc(C(=O)O)cc3)c2c1 | 70 µM | > 100 µM | > 100 µM | 61.3 µM | 65 µM | > 100 µM
